Key:
[1] = test system: LPC-induced demyelination model, castrated male mice; assay: Phosphorylated STAT3-expressing astrocytes in castrated male mice demyelinated by lysolecithin; assay type: in vivo, mouse
Excerpt: […]. The latter is important for both remyelination and astrocyte reactivity, which is similar to activated microglia involved in local inflammation. […].

[2] = test system: primary mixed glial cells; assay: Proliferation of Olig2+ cells (BrdU incorporation) in primary mixed glial cell cultures; assay type: cell-based, mouse; settings: for Olig2+ BrdU+ proliferating cells as percentage of total Olig2+ cells: SAG 1 μM or testosterone 1 μM from 5 to 12 DIV, BrdU 2 hours before end of culture
Procedure: Primary glial cell cultures were prepared from the dorsal telencephalon of newborn (P1) male mice as previously described in Feutz et al, J. Neurocytol, “Isolation and characterization of defective jimpy oligodendrocytes in culture”, 24:865-877 ([…]). Briefly, meninges are removed, and the dorsal telencephalons are microdissected and mechanically dissociated in DMEM supplemented with 10% calf serum, penicillin (50 U/ml), and streptomycin (50 μg/ml) (Thermo Fisher Scientific, France). The cell suspension is plated in a 24-well plates containing 0.5 ml of cultured medium coated with 30 μg/ml poly-1-lysine (Sigma-Aldrich). Cultures containing astrocytes, oligodendrocytes (OLs) and microglia cells are then incubated in 5% CO2 and 95% air in a humidified atmosphere (90%) at 37° C.
[…]. The supplemented culture medium was replaced every other day with a fresh solution. At 12 DIV, the cells were fixed for 20 minutes with 4% paraformaldehyde (PFA) in PBS, then permeabilized with 0.025% Triton X-100 for 10 minutes and blocked for 1 hour with Sea Block buffer (Thermo Fisher Scientific).
The cells were immunostained for BrdU and Olig2. For immunostaining, after overnight incubation with the primary antibodies at 4° C. followed by 3 washes in PBS, the cells were incubated with the appropriate secondary antibodies for 2 hours before washing with PBS and the addition of Fluoromount (Vector, clinisciences, France) as the mounting medium. Images were acquired with immunofluorescence microscopy as described above. (Data not shown).

[3] = test system: postnatal day 10 male pups; assay: Developmental myelination in male pups treated subcutaneously from P3 to P10 (MBP/NF200 immunostaining); assay type: in vivo, mouse; settings: s.c. every other day from P3, SANT 20 μg/g, testosterone 20 μg
[4] = test system: experimental autoimmune encephalomyelitis (EAE) in castrated male mice; assay: Experimental autoimmune encephalomyelitis (EAE): clinical score, electron microscopy and immunostaining of lumbar spinal cord; assay type: in vivo, mouse; settings: for density of myelinated axons in spinal cord (electron microscopy) / g-ratio (axon diameter/total outer diameter of the myelinated fiber) / percentage of abnormal axons among total axons: 30 days post EAE induction; for g-ratio (axon diameter/total outer diameter of the myelinated fiber): small calibre axons (≤2.5 μm), n=3; for total density of activated Iba1+ microglia in the spinal cord: FIG. 5E; for EAE clinical score: between days 21 and 30, testosterone intranasal 0.2 mg/day, SAG oral gavage every other day; for area occupied by Arg1+ cells as percentage of the total area of the lesion: lumbar spinal cord, FIG. 5F; for percentage of abnormal axons among total axons / GFAP-positive area as percentage of the lesion area: spinal cord; for GFAP-positive area as percentage of the lesion area: FIG. 5G
Procedure: Electron microscopy. […] The g ratio (the ratio between the axon diameter and fiber diameter corresponding to myelin sheath+axon diameter) was estimated by measuring the minimum and maximum axon diameter and fiber diameter for each axon using ImageJ software. At least 300 randomly chosen myelinated axons were evaluated for each animal.
The pathology was induced according to the instructions from the provider (Hooke Laboratories, MA, USA). Briefly, mice were immunized by subcutaneous injection of an emulsion of MOG35-55 peptide (myelin oligodendrocyte glycoprotein[…] fragment 35-55) in complete Freund's adjuvant (at two sites using 0.1 ml of the pre-conditioned mixture for each site) followed on the same day (Day 0) by a first intraperitoneal injection of pertussis toxin in PBS and by a second one on Day 1 (250 ng/dose). The mice were scored blindly once a day starting at Day 7 post-immunization until Day 30 according to the following scale: 0.0=no obvious changes in motor function; 0.5=tip of tail is limp; 1.0=limp tail; 1.5=limp tail and hind leg inhibition; 2.0=limp tail and weakness of hind legs or signs of head tilting; 2.5=limp tail and dragging of hind legs or signs of head tilting; 3.0=limp tail and complete paralysis of hind legs or limb tail with paralysis of one front and one hind leg; 3.5=limp tail and complete paralysis of hind legs and animal unable to right itself when placed on its side; 4.0=limb tail, complete hind leg and partial front leg paralysis with minimal moving and feeding; 4.5=complete hind and partial front leg paralysis with no movement around the cage with the animal appearing no more alert; 5.0=extreme paralysis which requires euthanasia of the animal.
The active agents were administered at the onset of clinical symptoms until Day 30 after immunization. Testosterone was administered via the intranasal route (0.2 mg/day in a volume of 2.5 μl in each nostril) in an oleogel composition as described above. SAG was administered orally by gavage ([…] of mouse weight) every other day.
The animals were sacrificed by ketamine overdose. The spinal cord/vertebrae was removed and lumbar spinal cord/vertebrae samples were treated according to the requirements of the various histological procedures. For immunostaining, the spinal cord/vertebrae fragments were post-fixed in PFA 4% for 24 hrs. The spinal cords were removed from the vertebral column, processed in an ethanol/xylene bath and embedded in paraffin blocks. 7-μm sections were then obtained using a microtome (Leica) and allowed to dry on glass slides overnight at 37° C. For electron microscopy, the spinal cord/vertebrae fragments were post-fixed in a mixture of PFA 2% and glutaraldehyde 2% for 5 days. The spinal cords were removed from the vertebral column, post-fixed in cacodylate-buffered 1% osmium tetroxide for 1 hour at 4° C. and in 2% uranyl acetate for 1 hour at room temperature, and then dehydrated by serial dilutions of ethanol and embedded in epoxy resin. Ultrathin sections were contrasted with a saturated uranyl acetate solution.

[5] = test system: primary mixed glial cells derived from Plp-EGP mice; assay: Differentiation of PLP+ oligodendroglial cells co-expressing MBP in primary mixed glial cells from Plp-EGFP mice; assay type: cell-based, mouse; settings: for fold increase in the percentage of PLP+ cells co-expressing MBP compared to control / percentage of PLP+ cells co-expressing MBP: SANT 0.1 μM, testosterone 1 μM, alone or together; for percentage of PLP+ cells co-expressing MBP: 12 DIV
Procedure: Briefly, meninges are removed, and the dorsal telencephalons are microdissected and mechanically dissociated in DMEM supplemented with 10% calf serum, penicillin (50 U/ml), and streptomycin (50 μg/ml) (Thermo Fisher Scientific, France). The cell suspension is plated in a 24-well plates containing 0.5 ml of cultured medium coated with 30 μg/ml poly-1-lysine (Sigma-Aldrich).
The supplemented culture medium was replaced every other day with a fresh solution.
To analyse differentiation of myelin producing cells, the primary mixed glial cells were derived from Plp-EGP mice and cultured as described above. Detection of PLP+ cells co-expressing MBP was performed by using primary mixed glial cells derived from Plp-EGP mice and immunostaining for Mbp. Immunofluorescence images were acquired as described above and the number of PLP^+ cells co-expressing MBP were evaluated.

[6] = test system: LPC-induced demyelination in young male adult mice; assay: LPC-induced demyelination of the corpus callosum with or without SAG (immunostaining at 2 and 10 dpl); assay type: in vivo, mouse
Procedure: Image Acquisition and Analysis. Images were taken using the microscope analyzing system Axiovision 4.2 (Carl Zeiss, Inc.), the confocal Zeiss LSM 510-Meta Confocor 2 and the scanner imager with the CaseViewer software. Analyses were performed with ImageJ software. At least 10 sections per mouse were analyzed and data are the mean of 3-5 mice. For the brains derived from the lysolecithin (LPC)-injected animals, immunofluorescent-positive cells or areas were determined in one every other 5 sections throughout the whole demyelinated lesion per mouse and averaged for each animal. The lesion surface was determined by measuring the area of the nuclear densification (correlated with myelin loss visualized by MBP or PLP staining) one every other 5 slices through the whole demyelinated lesion.
The effect of Smo activation by the Smo agonist SAG on demyelination was investigated as follows. LPC-induced demyelination was performed as previously described in Ferent et al., J. Neuroscience 33:1759-1772 (2013), in the absence or presence of SAG, in young male adult mice. Briefly, demyelinating lesions were induced unilaterally by stereotaxic injections of 2 μl of a solution containing LPC 1% (Sigma-Aldrich) along with SAG (0.2 μM) or the corresponding vehicle, into the right corpus callosum by using a Hamilton syringe specifically dedicated for neural surgery (NH BIO, France). The injection was performed at the following coordinates (to the bregma): anteroposterior (AP)+1 mm, lateral+1 mm, dorsoventral (DV) −2.2 mm. The brain was removed from deeply anesthetized mice and transcardially perfused with 4% PFA. The tissue was post-fixed for 4 hours in a fresh 4% PFA solution before being cryopreserved in 30% sucrose, frozen in liquid nitrogen and cryostat sectioned (14 μm). 4-5 mice were used per time point for each treatment condition. Mice were sacrificed at 2 and 10 days post-lesion (dpl), and prepared for immunostaining of PDGFRα, Olig2/APC, Ki67/PDGFRα, GFAP, and Iba1/Arg1. Images of immunostaining were acquired using immunofluorescence microscopy (data not shown), and the results were quantified by evaluating number of cells per surface unit for PDGFRα (FIG. 4A), Olig2/APC (FIG. 4B), Ki67/PDGFRα (FIG. 4C), GFAP (FIG. 4D), Iba1/Arg1 (FIG. 4E)

Structure (SMILES) | Olig2+ BrdU+ proliferating cells as percentage of total Olig2+ cells [2] | myelinated area: area occupied by MBP as percentage of total area occupied by NF200 axons [3] | density of myelinated axons in spinal cord (electron microscopy) [4] | g-ratio (axon diameter/total outer diameter of the myelinated fiber) [4] | total density of activated Iba1+ microglia in the spinal cord [4] | EAE clinical score [4] | area occupied by Arg1+ cells as percentage of the total area of the lesion [4] | percentage of abnormal axons among total axons [4] | GFAP-positive area as percentage of the lesion area [4] | fold increase in the percentage of PLP+ cells co-expressing MBP compared to control [5] | percentage of PLP+ cells co-expressing MBP [5] | other results
N#Cc1ccc(C2CCCc3cncn32)cc1 (stereo not shown) [fadrozole] | – | – | – | – | – | – | – | – | – | – | – | effect on the testosterone-induced increase of phosphorylated STAT3-expressing astrocytes ([1]; fadrozole per oral route 260 μg/kg with intranasal testosterone, 7 days): inhibited
C[C@]12CC[C@H]3[C@@H](CCC4=CC(=O)CC[C@@]43C)[C@@H]1CC[C@@H]2O [testosterone] | 3.8±0.6% | 78.0±4.1% | much higher density of myelinated axons | 0.773±0.003 | Neither testosterone nor SAG was found to significantly modify | ~2.0 | 6.8±1.4% | 15.8±1.4% | 38.8±1.8% | 4 fold | 11.7±1.5% | number of GFAP+ astrocytes expressing phosphorylated STAT3 ([1]; 7 days post-lesion, intranasal testosterone 0.2 mg/day or intranasal estradiol 0.05 mg/day): increased
Cc1nn(-c2ccccc2)c(C)c1C=NN1CCN(Cc2ccccc2)CC1 [SANT-1, (4-Benzyl-piperazin-1-yl)-(3,5-dimethyl-1-phenyl-1H-pyrazol-4-ylmethylene)-amine] | – | 75.1±4.3% | – | – | – | – | – | – | – | 4 fold | 12.4±0.8% | Effect on testosterone-induced increase in Olig2+ BrdU+ cells ([2]; SANT-1 0.1 μM with testosterone 1 μM): blocks testosterone-induced increase
CN[C@H]1CC[C@H](N(Cc2cccc(-c3ccncc3)c2)C(=O)c2sc3ccccc3c2Cl)CC1 [SAG, 3-Chloro-N-[trans-4-(methylamino)cyclohexyl]-N-[[3-(4-pyridinyl)phenyl]methyl]benzo[b]thiophene-2-carboxamide] | 8.4±0.5% | – | much higher density of myelinated axons | 0.737±0.005 | Neither testosterone nor SAG was found to significantly modify | ~1.0 | 10.9±1.7% | 14.0±1.7% | 25.1±2.2% | – | – | Claudin 5-positive area as percentage of the lesion area ([4]; blood brain barrier tight junction marker, FIG. 5H): 2.35±0.27%; Iba1+ microglia versus control ([6]; 2 dpl): unaffected; area occupied by GFAP+ astrocytes versus control ([6]; 2 dpl): tended to be decreased; density of Arg1+ pro-regenerative microglia ([6]; 2 dpl): 103±7 cells per surface unit; density of proliferating Ki67+ PDGFRα+ OPCs ([6]; 2 dpl): 39±2 cells per surface unit; fold enhancement of the density of Arg1+ microglia ([6]; 2 dpl): 2 fold; fold increase of the proportion of Iba1 microglia co-expressing Arg1 ([6]; 2 dpl): two-fold; proportion of Iba1 microglia co-expressing Arg1 ([6]; 2 dpl): 58±5%; total number of PDGFRα+ OPCs versus control ([6]; 2 dpl): remained unchanged; density of Olig2+ APC+ mature OLs ([6]; 10 dpl): 83±7 cells per surface unit; fold increase in PDGFRα+ cells compared to controls ([6]; 10 dpl): 2 fold; proportion of mature OLs versus control ([6]; 10 dpl): not significantly different; PDGFRα+ cells (OPCs) per unit surface ([6]; 10 dpl, SAG 0.2 μM injected with LPC): 121±11 cells per surface unit; Effect on Mbp expression when used alone ([5]; SAG 0.1 μM or 1 μM alone): did not modify Mbp expression; Effect on testosterone-mediated OL differentiation ([5]; SAG 0.1 μM or 1 μM with testosterone 1 μM): slight but significant decrease

Reference: patent publication US11723911B2, “Treatment of demyelinating diseases” (M ET P PHARMA AG, priority 2018, dated 2023)
